Test results from patent US6669951B2, “Compositions and methods for enhancing drug delivery across and into epithelial tissues” (CellGate, Inc., priority 1999, dated 2003).
Like-named read-outs stand apart in the source and are kept apart here.

Columns and labels:
[1] = test system: human skin grafts on SCID mice; details: in vivo
Protocol: Samples (100 μl) were applied as a liquid within excipient and prevented from dispersing by a Vaseline™ barrier and allowed to penetrate for fifteen minutes. At the end of this period animal was sacrificed, the relevant section of skin was excised, embedded in mounting medium (OCT) and frozen. […] Slides were analyzed by fluorescent microscopy.

[2] = test system: CD3+ T cells in inflamed skin; details: mouse, in vivo
[3] = Blood levels after buccal delivery; type: in vivo, rat; details: 5 mg/kg in Cremophor EL:ethanol 1:1
From the text: (§1) Clotting was inhibited by transferring the blood to glass tubes containing 100λ of 0.5% EDTA, and the blood was frozen.

skin of nude mice = test: Penetration of Cu-DTPA complexes into skin of nude mice; type: in vivo, mouse; details: 1 μM to 1 mM, abdominal region, 15, 30, 45 minutes
From the text: As controls, an equimolar amount of the Cu-DTPA complex was spotted onto the abdominal region.

[4] = test system: epithelia of the gastrointestinal tract; test: Gastrointestinal absorption protocol (histology); type: in vivo, mouse
Protocol: Experiments were performed on 8- to 10-week-old female Swiss Webster mice purchased from Taconic (Germantown, N.Y.). Mice were anesthetized with Nembutal and a midline incision was made along the abdomen. Intestines were measured, tied off at both ends of the desired section with sutures, and biotinylated peptides were injected into the lumen (approximately 100λ/inch). After a fifteen minute incubation, the tissue was removed and the lumen was gently washed with PBS.
Immediately following incubation with biotinylated peptides, the anesthetized rodents were sacrificed by cervical dislocation and the tied off sections of the GI tract were removed. The lumens of the various sections were filled with OCT using a plastic tipped syringe, immersed in OCT filled boats, and snap frozen in a 2-methyl-butane/dry ice solution. Frozen sections were allowed to warm slightly and 2 mm thick sagital cuts were made using a steel razor blade. The cuts were placed into OCT molds and snap frozen in a 2-methyl-butane/dry ice solution. Sections (5 μm) were cut on the cryostat, fixed in acetone at 4° C. for 10 minute, and allowed to air dry. After rehydration in PBS for 5 minutes, sections were blocked with normal horse serum, washed, incubated with streptavidin-FITC (20 μg/ml) for 30 minutes, washed, and mounted with mounting medium containing propidium iodide (PI).
After fifteen minutes of exposure, the relevant section of tissue was dissected, frozen, sectioned, and stained with Streptavidin fluorescein to define the location of the biotinylated peptide, and propidium iodide to counterstain all the nuclei in the section.

[5] = test system: squamous epithelia of the oral cavity; test: Penetration into squamous epithelia of the oral cavity; type: in vivo, mouse; details: fifteen minutes
From the text: To determine whether CellGate transporters could enter the squamous epithelia of the oral cavity, mice were anesthetized with Nembutal, their heads tipped to one side and solutions of the biotinylated peptides were placed in their mouths. After fifteen minutes the liquid was removed by pipette.
The capacity of the transporters to enter the squamous epithelial layers of the oral cavity was examined. A mouse was anesthetized, its head was tipped so that a solution of biotinylated r9 could be administered. The animal was kept in this position for fifteen minutes, at which time it was sacrificed, and the tongue and cheek were dissected, frozen, sectioned, stained with streptavidin-fluorescein, and counterstained with propidium iodide.

[6] = cited from earlier work
[7] = Half-life / release of conjugate in buffer; type: physicochemical; details: for half-life: buffer
[8] = Drug blood levels after intracolonic injection (LC MS MS); type: in vivo, Wistar rats; details: intracolonic in PBS
Protocol: Wistar rats, females of approximately 200-300 g (Simonsen, Gilroy, Calif.), were anesthetized, their abdomens were shaved, midline incisions were made, and a one-half inch section of the ascending colon in each animal was tied off with sutures. Taxol and cyclosporin (5 mg/kg) were injected as solutions in a 1:1 v/v Cremophor EL:ethanol mixture, whereas equivalent molar amounts of the r7 conjugates were injected in PBS. In all cases, the volume injected was approximately 500λ. The colon was placed back into the cavity, and the incision was closed using sutures.
as §1
Either taxol or cyclosporin was extracted from the whole blood using a modification of literature procedures. Briefly, whole blood (100λ) was transferred to a screw capped glass tube containing five mls of diethyl ether. The sample was vortexed vigorously for two minutes, centrifuged, and frozen in dry ice/methanol. The ethereal layer was transferred to another glass tube and the ether was evaporated. […] Samples were placed into a Perkin-Elmer series 200 autosampler and sequencially injected onto a C18 reverse column at 70° C. connected to a Shimadzu HPLC system, eluted with 70% methanol, 30% aqueous ammonium formate buffer, and the effluent was analyzed on a PE Sciex API 3000 tandem mass spectrometer.

[9] = test system: IL-2 secretion by Jurkat cells; test: Inhibition of IL-2 secretion, PMA/ionomycin stimulated; type: cell-based, human
Protocol: T cells subsequently were stimulated to produce IL-2 by addition of 10 ng/ml PMA (Sigma, St. Louis, Mo.) and 1 μM ionomycin (CalBiochem, San Diego, Calif.). Cultures were incubated overnight at 37° C. and supernatants were collected and IL-2 was measured using a fluorescent ELISA. Briefly, plates were coated with 4 μg/ml anti-human IL-2 antibody (BD Pharmingen, San Diego, Calif.), blocked with PBS containing 10% FBS for 1 hour at room temperature, washed, and supernatants added and incubated for 1 hour. Media was removed and biotinylated anti-human IL-2 (1.6 μg/ml), was added for one hour. The plates were washed, and then europium labeled streptavidin (0.04 ng/ml) was added for one hour. After another wash, enhancement solution was added and the resulting fluorescence was measured using a Wallac plate reader (Wallac, Turku, Finland).
See R. Wiskocil, et al., J Immunol 134, 1599-603 (1985).

[10] = test system: ear inflammation in Balb/c mice; test: Murine contact dermatitis (DNFB), ear inflammation; type: in vivo, mouse
Protocol: Balb/c (6-7 weeks) mice were painted on the abdomen with 100 μl of 0.7% DNFB in acetone olive oil (95:5). Three days later both ears of the animals were restimulated with 0.5% DNFB in acetone. […] Ear inflammation was measured 24 hours after restimulation using a spring loaded caliper. The percent reduction of inflammation was calculated using the following formula […], where t=thickness of the treated ear, n=the thickness of a normal untreated ear, and u=thickness of an inflamed ear without any treatment. N=20 animals in each group.

Compound: C/C=C/C[C@@H](C)[C@@H](OC(=O)CSC[C@H](NC(=O)[C@@H](CCCNC(=N)N)NC(=O)[C@@H](CCCNC(=N)N)NC(=O)[C@@H](CCCNC(=N)N)NC(=O)[C@@H](CCCNC(=N)N)NC(=O)[C@@H](CCCNC(=N)N)NC(=O)[C@@H](CCCNC(=N)N)NC(=O)[C@@H](CCCNC(=N)N)NC(=O)CCCCCNC(=O)CCCC[C@@H]1SC[C@@H]2NC(=O)N[C@@H]21)C(N)=O)[C@H]1C(=O)N[C@@H](CC)C(=O)N(C)CC(=O)N(C)[C@@H](CC(C)C)C(=O)N[C@@H](C(C)C)C(=O)N(C)[C@@H](CC(C)C)C(=O)N[C@@H](C)C(=O)N[C@H](C)C(=O)N(C)[C@@H](CC(C)C)C(=O)N(C)[C@@H](CC(C)C)C(=O)N(C)[C@@H](C(C)C)C(=O)N1C [biotin r7 CsA, B-aca-r7-Cys-O-acyl-Cyclosporin A]
- penetration into human skin [1]: penetrated human epidermis and dermis
- presence in infiltrating T cells of inflamed skin [2]: found in all CD3[+] T cells in the tissue

Compound: CC(=O)O[C@H]1C(=O)[C@@]2(C)[C@H]([C@H](OC(=O)c3ccccc3)[C@]3(O)C[C@H](OC(=O)[C@H](O)[C@@H](NC(=O)c4ccccc4)c4ccccc4)C(C)=C1C3(C)C)[C@]1(OC(C)=O)CO[C@@H]1C[C@@H]2O [taxol, paclitaxel]
- appearance of taxol in blood after buccal administration [3]: appeared in the blood stream by the first time point

Compound: Copper-diethylenetriaminepentaacetic Acid Complex [Cu-DTPA]
- colour on skin after wiping off (skin of nude mice): not where the Cu-DTPA alone was spotted

Compound: N=C(N)NCCC[C@@H](NC(=O)[C@@H](CCCNC(=N)N)NC(=O)[C@@H](CCCNC(=N)N)NC(=O)[C@@H](CCCNC(=N)N)NC(=O)[C@@H](CCCNC(=N)N)NC(=O)[C@@H](CCCNC(=N)N)NC(=O)[C@@H](CCCNC(=N)N)NC(=O)[C@@H](CCCNC(=N)N)NC(=O)[C@@H](CCCNC(=N)N)NC(=O)CCCCCNC(=O)CCCC[C@@H]1SC[C@@H]2NC(=O)N[C@@H]21)C(N)=O [bio aca r9 CONH2]
- staining of duodenum ([4]; 100 μM injected into lumen, fifteen minutes): no detectable staining over background was observed
- staining of ascending and transverse colon ([4]; 100 μM, fifteen minutes): stained all surface areas of the villi, and penetrated several cell layers
- staining of ileum ([4]; 100 μM, fifteen minutes): first sign of uniform staining
- staining of jejunum ([4]; 100 μM, fifteen minutes): Poor staining
- uptake along the GI tract ([4]; mouse, in vivo): uptake increasing with distance from the gastric pylorus
- penetration into cheek and tongue [5]: quickly and efficiently penetrated multiple layers of the epithelia

Compound: CC(=O)O[C@@]12CO[C@@H]1C[C@H](O)[C@@]1(C)C(=O)[C@H](O)C3=C(C)[C@@H](OC(=O)[C@H](O)[C@@H](NC(=O)OC(C)(C)C)c4ccccc4)C[C@@](O)([C@@H](OC(=O)c4ccccc4)[C@H]21)C3(C)C [taxotere]
- water solubility [6]: 6 to 7 µg/mL

Compound: CC(=O)N[C@@H](CSCC(=O)O[C@@H](C(=O)O[C@H]1C[C@@]2(O)[C@@H](OC(=O)c3ccccc3)[C@@H]3[C@]4(OC(C)=O)CO[C@@H]4C[C@H](O)[C@@]3(C)C(=O)[C@H](OC(C)=O)C(=C1C)C2(C)C)[C@@H](NC(=O)c1ccccc1)c1ccccc1)C(=O)N[C@H](CCCNC(=N)N)C(=O)N[C@H](CCCNC(=N)N)C(=O)N[C@H](CCCNC(=N)N)C(=O)N[C@H](CCCNC(=N)N)C(=O)N[C@H](CCCNC(=N)N)C(=O)N[C@H](CCCNC(=N)N)C(=O)N[C@H](CCCNC(=N)N)C(N)=O [compound 14]
- half-life ([7]; PBS, pH 7.4 at 37° C., read-out: half life (converted)): 5 h
- blood levels of taxol [8]: did not result in significant blood levels of taxol within five hours

Compound: C/C=C/C[C@@H](C)[C@@H](OC(=O)CN(Cc1ccccc1)C(=O)CNCC(=O)N[C@@H](CCCNC(=N)N)C(=O)N[C@@H](CCCNC(=N)N)C(=O)N[C@@H](CCCNC(=N)N)C(=O)N[C@@H](CCCNC(=N)N)C(=O)N[C@@H](CCCNC(=N)N)C(=O)N[C@@H](CCCNC(=N)N)C(=O)N[C@@H](CCCNC(=N)N)C(N)=O)[C@H]1C(=O)N[C@@H](CC)C(=O)N(C)CC(=O)N(C)[C@@H](CC(C)C)C(=O)N[C@@H](C(C)C)C(=O)N(C)[C@@H](CC(C)C)C(=O)N[C@@H](C)C(=O)N[C@H](C)C(=O)N(C)[C@@H](CC(C)C)C(=O)N(C)[C@@H](CC(C)C)C(=O)N(C)[C@@H](C(C)C)C(=O)N1C [releasable R7 CsA]
- inhibition of IL-2 secretion ([9]; added 12 hours prior to PMA/ionomycin): dose dependent inhibition was observed
- EC50 relative to CsA dissolved in alcohol ([9]; added at the same time): approximately two
- reduction in ear inflammation ([10]; 0.01% topical): 40.9%±3.3
- reduction in ear inflammation ([10]; 0.1% topical): 64.8%±4.0
- reduction in inflammation in the untreated ear ([10]; 1%): No reduction in inflammation was seen in the untreated ear
- reduction in ear inflammation ([10]; 1% topical, 1, 5 and 20 h after restimulation, measured 24 hours): 73.9%±4.0
- pH dependent stability ([7]; absence of serum): stable at acidic pH, but labile at physiological pH in the absence of serum
- half-life ([7]; PBS pH 7.4 (37° C. where stated), read-out: half-life): 1.5 h
